The values below come from PMC3610893, “The CouPSTU and TarPQM Transporters in Rhodopseudomonas palustris: Redundant, Promiscuous Uptake Systems for Lignin-Derived Aromatic Substrates” (PLoS ONE, 2013).

Where “and” joins values, the source holds several entries; their conditions need not be identical. Identical values can stand only once.

Test [1] concerns the target T1, CouP (RPA1789) periplasmic binding-protein (Rhodopseudomonas palustris, UniProt Q6N8W4).
T1 sequence (Q6N8W4 27-385): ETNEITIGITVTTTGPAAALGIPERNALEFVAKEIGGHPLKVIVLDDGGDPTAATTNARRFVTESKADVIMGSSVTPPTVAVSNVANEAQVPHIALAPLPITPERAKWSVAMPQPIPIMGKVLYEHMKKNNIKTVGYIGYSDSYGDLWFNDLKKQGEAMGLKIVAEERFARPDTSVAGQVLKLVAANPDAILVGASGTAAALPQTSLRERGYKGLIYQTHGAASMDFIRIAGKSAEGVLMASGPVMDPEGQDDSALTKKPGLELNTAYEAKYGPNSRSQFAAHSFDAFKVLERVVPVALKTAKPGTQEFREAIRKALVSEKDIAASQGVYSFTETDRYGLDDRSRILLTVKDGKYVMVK
In words: Intrinsic tryptophan fluorescence spectroscopy / ligand titrations with CouP (RPA1789). The conditions noted are these: for Quench of intrinsic tryptophan fluorescence of CouP (RPA1789): 0.2 µM ligand added to 0.2 µM protein (equimolar), excitation 280 nm; for K d with CouP that was not urea treated, relative to refolded protein: fluorescence titrations, CouP not urea treated (endogenous ligand not removed), fold higher. As for the experimental part:
(§1) Pure protein was unfolded by dialysis against 1 L of 6 M urea for 16 hours at 4°C. Refolding was effected by dialysis against 2 L of refolding buffer (50 mM Tris-HCl pH 7.2 plus 100 mM NaCl) for 8 hours, the buffer being changed every 2 hours with a final overnight dialysis. Once removed from the dialysis tubing, protein was centrifuged (13,000×g, 10 mins, 4°C) to remove any precipitated misfolded protein.
(§2) Changes in the UV fluorescence of intrinsic tryptophan residues in RPA1782 and RPA1789 were measured using a Cary Eclipse fluorimeter (Varian Ltd, UK) in 10 mM Tris-HCl buffer pH 7.4 at 30°C in a 3 ml volume. Excitation of samples was at 280 nm (5 nm slit width) and emission was recorded at 300–400 nm (20 nm slit width). Ligand titrations were performed with 0.2 µM protein with λex 280 nm λem 340 nm using 5 nm excitation and 20 nm emission slit widths respectively. Except where indicated, data from three independent titrations was used to calculate K d values, by fitting to the quadratic equation for tight binding as previously described.

Test [2] has as its target T2, TarP (RPA1782) periplasmic binding-protein (Rhodopseudomonas palustris, UniProt Q6N8X0).
T2 sequence (Q6N8X0 20-336): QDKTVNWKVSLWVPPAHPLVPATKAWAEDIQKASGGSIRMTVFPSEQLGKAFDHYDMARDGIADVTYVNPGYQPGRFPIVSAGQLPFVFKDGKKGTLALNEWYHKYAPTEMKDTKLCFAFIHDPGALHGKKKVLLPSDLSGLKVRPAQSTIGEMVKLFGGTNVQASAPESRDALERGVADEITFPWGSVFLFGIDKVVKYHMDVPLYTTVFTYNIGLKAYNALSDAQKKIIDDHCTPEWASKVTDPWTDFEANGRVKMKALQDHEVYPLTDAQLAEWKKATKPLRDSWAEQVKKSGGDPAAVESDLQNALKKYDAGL
In words: Intrinsic tryptophan fluorescence spectroscopy / ligand titrations with TarP (RPA1782). As to conditions: for Quench of intrinsic tryptophan fluorescence of TarP (RPA1782): equimolar protein and ligand (0.2 µM), excitation 280 nm. As for the experimental part: as §1, §2

Test [3] concerns the target T3, CouP (RPA1789) (Rhodopseudomonas palustris, UniProt Q6N8W4).
T3 sequence (Q6N8W4 27-385): T1 sequence (Q6N8W4 27-385)
In words: Isothermal titration calorimetry (ITC) with RPA1789. The class given is binding. The method, then: ITC experiments were carried out using a VP-ITC calorimeter (Microcal, Inc., UK). Ligand stock solutions for ITC experiments were made up in aliquots of the final refolding buffer that RPA1789 was dialysed against (50 mM Tris-HCl pH 7.2 plus 100 mM NaCl) and all reactions used the same buffer. The reaction cell contained 1.8 ml of 50 µM protein in refolding buffer. Ligand titrations were carried out at 20°C (except caffeate which was carried out at 25°C) by the injection of 20×15 µl aliquots of 400 µM ligand, from a 300 µl syringe, for a duration of 35 seconds at 7 minute intervals. After taking into account the baseline and any heats of dilution by the ligand, all titrations were integrated using the ORIGIN software programme associated with the calorimeter then exported to in-house numerical routines for data fitting to the Weissman isotherm.

In test [4] the target is T1, CouP (RPA1789) periplasmic binding-protein. Description: Intrinsic tryptophan fluorescence spectroscopy / ligand titrations with CouP (RPA1789). The conditions noted are these: CouP not urea treated (endogenous ligand not removed).
Test [5] deals with RPA1789. Set-up: method as in PMID 22577139. As to conditions: read-out: K d for RPA1789 by ITC (literature); cited from earlier work. (Isothermal titration calorimetry measures the heat released or taken up as one component is titrated into another.)
Setting [6] is: ITC, 20°C, 50 µM protein, 50 mM Tris-HCl pH 7.2 plus 100 mM NaCl.

In the case of `O=C(O)c1ccc(O)cc1` [4-hydroxybenzoate], the “Quench of intrinsic tryptophan fluorescence of CouP (RPA1789)” value (from here on “Quench … (RPA1789)”) in test [1] is recorded as “did not produce any fluorescence change”. Further, the “Binding to CouP (RPA1789)” value in test [1] (fluorescence) is recorded as “no evidence of binding”. Besides, the “Binding to TarP (RPA1782), fluorescence screen” value in test [2] (equimolar protein and ligand) is given as “no evidence of binding”.

For the molecule `O=C(O)/C=C/c1ccc(O)c(O)c1` [Caffeate, (E)-3-(3,4-dihydroxyphenyl)-2-propenoic acid], in test [1], the Kd came to 2.4 ± 0.8 nM; the “Quench … (RPA1789)” value is reported as 25–50%; the “K d with CouP that was not urea treated, relative to refolded protein” value is recorded as 200-1,000 fold. Further, in test [2], the Kd turned out to be 14 ± 7 nM and the “Quench of intrinsic tryptophan fluorescence of TarP (RPA1782)” value (“Quench … (RPA1782)” for short) is reported as ~5%. This molecule registered a Kd in test [3] of 27 ± 0.07 nM. The “ΔH (binding enthalpy)” value in test [3] (setting [6]) is “negligible enthalpy of binding”. Besides, in test [3] (ITC, 25°C), the “n (ligand binding stoichiometry)” value is on record as 0.776±0.005, the “ΔH (binding enthalpy)” value worked out at 1.78 ± 0.05 kcal/mol, the “ΔHdil (heats of dilution of the ligands)” value was -0.28 kcal/mol and the “ΔS (binding entropy)” value is on record as 40 cal mol^−1 K^−1.

For `O=C(O)/C=C/c1ccccc1` [Cinnamate, (E)-3-phenyl-2-propenoic acid], in test [1], the Kd is 88 ± 8 nM and the “Quench … (RPA1789)” value is given as 25–50%. Moreover, the “Binding to CouP that was not urea treated” value in test [4] is on record as “no evidence for cinnamate binding”. In addition, in test [2], the Kd was 50 nM and 33 nM; the “Quench … (RPA1782)” value is ~5%. Moreover, in test [3] (ITC, 20°C), the “n (ligand binding stoichiometry)” value turned out to be 0.757±0.003, the “ΔHdil (heats of dilution of the ligands)” value is -0.43 kcal/mol and the “ΔS (binding entropy)” value was 56 cal mol^−1 K^−1. For the same molecule, the “ΔH (binding enthalpy)” value in test [3] (setting [6]) came to 7.45 ± 0.08 kcal/mol. Further, the “ΔHbind (less favourable enthalpy of binding)” value in test [3] (ITC, CouP, compared with ligands bearing the 4-OH group) is > 4 kcal/mol.

On to `O=C(O)/C=C/c1ccc(O)cc1` [Coumarate, (E)-3-(4-hydroxyphenyl)-2-propenoic acid], for which, in test [1], the Kd is 2.6 ± 0.09 nM; the “Quench … (RPA1789)” value was ~30% and 25–50%; the “K d with CouP that was not urea treated, relative to refolded protein” value was 200-1,000 fold. In addition, in test [2], the Kd worked out at 8 ± 5 nM and the “Quench … (RPA1782)” value is reported as ~5%. Moreover, in test [3] (ITC, 20°C), the “n (ligand binding stoichiometry)” value turned out to be 0.993±0.003, the “ΔHdil (heats of dilution of the ligands)” value is -0.26 kcal/mol and the “ΔS (binding entropy)” value amounted to 46 cal mol^−1 K^−1. In addition, in test [3] (setting [6]), the “ΔH (binding enthalpy)” value turned out to be 3.23 ± 0.03 kcal/mol. Further, the Kd in test [5] was 8600 nM.

As for `COc1cc(/C=C/C(=O)O)ccc1O` [Ferulate, (E)-3-(4-hydroxy-3-methoxyphenyl)-2-propenoic acid], in test [1], the Kd was determined as 15 ± 6 nM; the “Quench … (RPA1789)” value is 25–50%; the “K d with CouP that was not urea treated, relative to refolded protein” value is on record as 200-1,000 fold. Also, in test [2], the Kd was 15 ± 3 nM and the “Quench … (RPA1782)” value is given as ~5%. Further, in test [3] (ITC, 20°C), the “n (ligand binding stoichiometry)” value came to 0.803±0.002, the “ΔHdil (heats of dilution of the ligands)” value is -0.24 kcal/mol and the “ΔS (binding entropy)” value was determined as 43 cal mol^−1 K^−1. For the same molecule, the “ΔH (binding enthalpy)” value in test [3] (setting [6]) was determined as 3.18 ± 0.03 kcal/mol.

For the molecule `COc1cc(C=CC(=O)O)cc(OC)c1O` [sinapate, 3-(4-hydroxy-3,5-dimethoxyphenyl)-2-propenoic acid], the “Quench … (RPA1789)” value in test [1] is on record as ~5%.
